# According to patent publication US12240825B2, “Oxexin 1 receptor antagonists” (Heptares Therapeutics Limited, priority 2019, dated 2025):
# Assays:
# [1] = molecular target: T1, Human OX1 receptor (Homo sapiens (Human), UniProt O43613); test: IPone accumulation assay, CHO cells expressing OX1; type: cell-based; conditions: antagonism of orexin A (EC80 ~20 nM)-induced inositol phosphate turnover, read-out: fpKb average OX1 (converted)
# Experimental: Generation of CHO stable cell lines expressing the human OX1R and OX2R. Stable cell lines for the human OX1R and OX2R receptors were generated through the transfection of CHO cells using the transfection reagent Genejuice (Novagen number 70967) and cDNA coding for either the human OX1R or OX2R. Cells were cultured in Sigma Nutrient Mixture F-12 Ham media (catalog number N6658) supplemented with 10% heat-inactivated FBS. Forty-eight hours after transfection, cells were harvested and placed under geneticin selection by culturing in Sigma Nutrient Mixture F-12 Ham media supplemented with 10% heat-inactivated FBS and geneticin (ThermoFisher Catalog number: 10131035). Selection of the final stable clone for each receptor was made on the basis of receptor expression, assay signal to noise and robustness though increasing passage. Selected clones for the human OX1R and OX2R were then frozen down into liquid nitrogen using Cell Freezing Medium-DMSO (Sigma-Aldrich catalog number: C6164).
# (§1) IPone accumulation assay. A CHO cell line stably expressing either human OX1 or OX2 receptor was used with the IPone HTRF assay kit (CisBio: Part #62IPAPEJ) to measure receptor activation. The assay was optimised to measure the ability (potency; fpKb) of antagonists to reduce agonist (orexin A)-induced inositol phosphate turnover. Briefly, cells were plated onto half area 96-well white walled plates at a density of 12,500 cells/well. Sixteen hours post-plating cell growth media was replaced with antagonist concentration-response curve diluted in stimulation buffer (supplied with the kit). Cells were incubated in a humidified incubator (37° C.) for 30 min before an EC80 challenge concentration (˜20 nM (OX1) and 40 nM (OX2)) of orexin A (Tocris catalogue number 1455). After 30 min stimulation in a humidified incubator (37° C.) the assay was terminated by the addition of detection mixture as per manufacturer's instructions. The concentration of compound which reduced orexin-A stimulated turnover of inositol phosphates by 50% (IC50) was calculated by fitting to a four parameter sigmoidal dose response curve. The IC50 values were converted to fpKB values using the orexin A pEC50 value estimated on each plate as well as the challenge concentration interpolated from the orexin A control curve.
# [2] = molecular target: T1, Human OX1 receptor; test: [3H]-radioligand binding assay, OX1; conditions: competition binding, membranes of SF21 cells, Ki by Cheng-Prusoff
# Excerpt: (§2) Cloning, Baculovirus generation, large-scale infection of SF21 cells and membrane preparation. Human OX1 or OX2 receptor were cloned into Invitrogen's (ThermoFisher Scientific, UK) Bac-to-Bac Baculovirus Expression System. P0 baculovirus was generated by transfecting SF9 cells with bacmid DNA using Cellfectin® II transfection reagent (ThermoFisher Scientific, UK, Catalog number 10362-100). Following P0 generation P1 virus was then generated ready for large scale infection and membrane preparation. SF21 cells were grown in expression medium ESF921 (Expression Systems, USA, catalog number 96-001-01) supplemented with 10% heat-inactivated FBS and 1% Pen/Strep and were infected at a cell density of 2.5×10^6 cells/mL and a multiplicity of infection of 1.0 for both human OX1R and OX2R. Incubation was carried out at over 48 h in a shaking incubator set at 27° C. The cell culture was then centrifuged at 2,500 rcf for 10 min at 4° C. The pellets were resuspended in cold PBS supplemented with Roche's Complete EDTA-free protease inhibitor cocktail tablets (Roche Applied Sciences, catalog number 05056489001), 1 mM PMSF and 1 mM EDTA. The resuspended cell paste was then centrifuged at 3,273 rcf for 12 min at 4° C. The supernatant was discarded and the pellet frozen at −80° C. The cell pellet from a 4 L culture was resuspended in buffer containing 50 mM HEPES pH 7.5, 150 mM NaCl, 8 Roche EDTA-Free protease inhibitor cocktail tablets and 1 mM PMSF. The suspension was left stirring at rt for 1 h and then homogenised for 90 s at 9,500 rpm using a VDI 25 (VWR, USA) homogeniser. The cells were then lysed using a Microfluidiser processor M-110L Pneumatic (Microfluidics, USA) at 60 PSI and membranes collected by ultracentrifugation at 204.7 k×g for 1 h. The supernatant was discarded and the pellet was resuspended and homogenised in 90 s at 9,500 rpm in 50 mL (25 mL for each 2 L culture) of buffer containing 50 mM Hepes pH 7.5, 150 mM NaCl, 3 Roche EDTA-free protease inhibitor cocktail tablets and 1 mM PMSF. The resulting membranes were then stored at −80° C.
# (§3) [^3H]-radioligand binding assay. After thawing, membrane homogenates were resuspended in the binding buffer (8.5 mM HEPES, pH 7.4, 1.3 mM CaCl2, 1.2 mM MgSO4, 118 mM NaCl, 4.7 mM KCl, 4 mM NaHCO3, 1.2 mM KH2PO4, 11 mM glucose) to a final assay concentration of 6.4 μg (OX1) or 1.4 μg (OX2) protein per well. Saturation isotherms were determined by the addition of various concentrations (0-30 nM) of [^3H]-4-(2,6-difluoro-4-methoxybenzyl)-2-(5,6-dimethoxypyridin-3-yl)-2H-1,2,4-benzothiadiazin-3(4H)-one 1,1-dioxide (Christopher et al, MedChemComm., 2015, 6, 947-955) in a total reaction volume of 250 μL for 90 min at rt. At the end of the incubation, membranes were filtered onto a 96-well GF/B filter pre-incubated with 0.5% polyethylenimine, with a Tomtec cell harvester and washed 5 times with 0.5 mL distilled water. Non-specific binding (NSB) was measured in the presence of 3.33 μM [4-(5-chloro-1,3-benzoxazol-2-yl)-7-methyl-1,4-diazepan-1-yl][5-methyl-2-(2H-1,2,3-triazol-2-yl)phenyl]methanone (Wertz et al, Angew. Chem. Int. Ed., 2011, 50, 11511-11515). Radioactivity on the filter was counted (1 min) on a Microbeta radiometric plate counter (Perkin Elmer) after addition of 50 μL of scintillation fluid (LabLogic: Part #SG-BXX-14). […] IC50 values were derived from the inhibition curve and the equilibrium dissociation constant (Ki) values were calculated using the Cheng-Prusoff equation.
# [3] = molecular target: T2, Human OX2 receptor (Homo sapiens (Human), UniProt O43614); test: [3H]-radioligand binding assay, OX2; conditions: competition binding, membranes of SF21 cells, Ki by Cheng-Prusoff
# Excerpt: as §2, §3
# [4] = molecular target: T2, Human OX2 receptor; test: IPone accumulation assay, CHO cells expressing OX2; type: cell-based; conditions: antagonism of orexin A (EC80 40 nM)-induced inositol phosphate turnover, read-out: fpKb average OX2 (converted)
# Experimental: as §1, with “Generation of CHO stable cell lines expressing the human OX1R and OX2R. Stable cell lines for the human OX1R and OX2R receptors were generated through the transfection of CHO cells using the transfection reagent Genejuice (Novagen number 70967) and cDNA coding for either the human OX1R or OX2R. Cells were cultured in Sigma Nutrient Mixture F-12 Ham media (catalog number N6658) supplemented with 10% heat-inactivated FBS. Forty-eight hours after transfection, cells were harvested and placed under geneticin selection by culturing in Sigma Nutrient Mixture F-12 Ham media supplemented with 10% heat-inactivated FBS and geneticin (ThermoFisher Catalog number: 10131035). Selection of the final stable clone for each receptor was made on the basis of receptor expression, assay signal to noise and robustness though increasing passage. Selected clones for the human OX1R and OX2R were then frozen down into liquid nitrogen using Cell Freezing Medium-DMSO (Sigma-Aldrich catalog number: C6164). IPone accumulation” for “IPone accumulation”, “(CisBio: Part #62[…]) to measure” for “(CisBio: Part #62IPAPEJ) to measure”, “challenge concentration ( 20 nM (OX1)” for “challenge concentration (˜20 nM (OX1)”
# T2 sequence (O43614 whole entry): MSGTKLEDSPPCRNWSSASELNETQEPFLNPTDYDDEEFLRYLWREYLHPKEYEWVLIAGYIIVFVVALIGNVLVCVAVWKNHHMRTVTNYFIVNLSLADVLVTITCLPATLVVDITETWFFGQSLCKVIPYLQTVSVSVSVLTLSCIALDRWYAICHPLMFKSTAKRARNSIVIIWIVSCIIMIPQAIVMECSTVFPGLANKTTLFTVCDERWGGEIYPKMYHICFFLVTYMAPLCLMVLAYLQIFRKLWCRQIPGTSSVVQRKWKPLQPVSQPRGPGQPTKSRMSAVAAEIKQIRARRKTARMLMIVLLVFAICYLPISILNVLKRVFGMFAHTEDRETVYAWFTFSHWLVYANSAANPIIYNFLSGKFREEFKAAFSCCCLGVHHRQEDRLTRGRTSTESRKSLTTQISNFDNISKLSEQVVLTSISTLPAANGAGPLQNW
# T1 sequence (O43613 whole entry): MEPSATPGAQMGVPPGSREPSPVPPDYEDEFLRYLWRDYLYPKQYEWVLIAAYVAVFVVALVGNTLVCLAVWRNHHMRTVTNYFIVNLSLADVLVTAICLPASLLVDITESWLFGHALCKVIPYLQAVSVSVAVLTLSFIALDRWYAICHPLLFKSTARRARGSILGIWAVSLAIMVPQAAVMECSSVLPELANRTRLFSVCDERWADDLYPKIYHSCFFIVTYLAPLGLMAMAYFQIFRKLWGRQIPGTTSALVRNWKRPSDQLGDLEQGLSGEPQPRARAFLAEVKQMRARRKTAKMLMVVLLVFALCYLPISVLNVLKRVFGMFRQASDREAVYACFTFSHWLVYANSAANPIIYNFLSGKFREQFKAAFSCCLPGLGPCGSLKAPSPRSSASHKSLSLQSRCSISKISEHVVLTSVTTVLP
Compound,Kb [1] [nM],pKi average OX1 [2],pKi average OX2 [3],Kb [4] [nM]
"CC(=O)Nc1ccc(-n2nccn2)c(C(=O)N[C@H]2CCC[C@@H]2COc2ccc(F)c(F)c2)n1 [Example 9, 6-acetamido-N-[(1S,2S)-2-[(3,4-difluorophenoxy)methyl]cyclopentyl]-3-(triazol-2-yl)pyridine-2-carboxamide]",25.1,8.2,5.9,> 200
"COC(=O)Nc1ccc(-n2nccn2)c(C(=O)N[C@H]2CCC[C@@H]2COc2ccc(F)cc2)n1 [Example 10, methyl N-[6-[[(1S,2S)-2-[(4-fluorophenoxy)methyl]cyclopentyl]carbamoyl]-5-(triazol-2-yl)-2-pyridyl]carbamate]",79.4,8.1,<5.9,> 794
"O=C(N[C@H]1CCC[C@@H]1COc1ccc(F)cc1)c1nc(NC(=O)C(F)F)ccc1-n1nccn1 [Example 11, 6-[(2,2-difluoroacetyl)amino]-N-[(1S,2S)-2-[(4-fluorophenoxy)methyl]cyclopentyl]-3-(triazol-2-yl)pyridine-2-carboxamide]",31.6,7.9,<5.8,> 1000
"CC(=O)Nc1ccc(-c2ncccn2)c(C(=O)N[C@H]2CCC[C@@H]2COc2ccc(F)cc2)n1 [Example 14, 6-acetamido-N-[(1S,2S)-2-[(4-fluorophenoxy)methyl]cyclopentyl]-3-pyrimidin-2-yl-pyridine-2-carboxamide]",3.98,8.3,6.0,> 398
"CC(=O)Nc1ccc(-c2ncccn2)c(C(=O)N[C@H]2CCC[C@@H]2COc2ccc(Cl)cc2)n1 [Example 15, 6-acetamido-N-[(1S,2S)-2-[(4-chlorophenoxy)methyl]cyclopentyl]-3-pyrimidin-2-yl-pyridine-2-carboxamide]",3.98,8.7,6.2,> 631
"COCC(=O)Nc1ccc(-c2ncccn2)c(C(=O)N[C@H]2CCC[C@@H]2COc2ccc(F)cc2)n1 [Example 16, N-[(1S,2S)-2-[(4-fluorophenoxy)methyl]cyclopentyl]-6-[(2-methoxyacetyl)amino]-3-pyrimidin-2-yl-pyridine-2-carboxamide]",200,7.7,<5.1,> 1000
"CC(=O)Nc1ccc(-n2nccn2)c(C(=O)N[C@H]2CCC[C@@H]2COc2ccc(F)cc2F)n1 [Example 17, 6-acetamido-N-[(1S,2S)-2-[(2,4-difluorophenoxy)methyl]cyclopentyl]-3-(triazol-2-yl)pyridine-2-carboxamide]",50.1,9.1,5.4,> 63.1
"CC(=O)Nc1ccc(-c2ncccn2)c(C(=O)N(C)[C@H]2CCC[C@@H]2COc2ccc(F)cc2)n1 [Example 18, 6-acetamido-N-[(1S,2S)-2-[(4-fluorophenoxy)methyl]cyclopentyl]-N-methyl-3-pyrimidin-2-yl-pyridine-2-carboxamide]",0.631,8.6,6.8,> 501
"O=C(N[C@H]1CCC[C@@H]1COc1ccc(F)cc1)c1nc(NCC(F)F)ccc1-n1nccn1 [Example 19, 6-(2,2-difluoroethylamino)-N-[(1S,2S)-2-[(4-fluorophenoxy)methyl]cyclopentyl]-3-(triazol-2-yl)pyridine-2-carboxamide]",15.8,8.8,6.6,> 501
"O=C(N[C@H]1CCC[C@@H]1COc1ccc(F)cc1)c1nc(NCCO)ccc1-n1nccn1 [Example 20, N-[(1S,2S)-2-[(4-fluorophenoxy)methyl]cyclopentyl]-6-(2-hydroxyethylamino)-3-(triazol-2-yl)pyridine-2-carboxamide]",7.94,8.4,5.8,> 501
"CC(=O)Nc1ccc(-c2ncc(F)cn2)c(C(=O)N[C@H]2CCC[C@@H]2COc2ccc(F)cc2)n1 [Example 21, 6-acetamido-N-[(1S,2S)-2-[(4-fluorophenoxy)methyl]cyclopentyl]-3-(5-fluoropyrimidin-2-yl)pyridine-2-carboxamide]",20,8.2,5.6,> 794
